target: CRBN-DDB1 (Homo sapiens, UniProt Q96SW2); experiment: Compound binding to CRBN by HTRF assay; conditions: CRBN-DDB1 2.5 nM, Cy5-Thalidomide 100 nM, 30 min at ambient temperature; read-out: HTRF Class (Cereblon binding, HTRF IC50)
Description: Example 146: Compound Binding to CRBN by HTRF Assay
Compound activity was monitored in a Homogenous Time-Resolved Fluorescence (HTRF) assay using 1-[5-({2-[2-(2-{[2-(2,6-dioxopiperidin-3-yl)-1,3-dioxo-2,3-dihydro-1H-isoindol-4-yl]oxy}acetamido)ethoxy]ethyl}carbamoyl)pentyl]-3,3-dimethyl-2-[(1E,3E)-5-[(2E)-1,3,3-trimethyl-5-sulfo-2,3-dihydro-1H-indol-2-ylidene]penta-1,3-dien-1-yl]-3H-indol-1-ium-5-sulfonate as a fluorescent probe. Biochemical assays were conducted in Greiner white 384 well HiBase plates (Cat. No 784075-25) in 10 μL total volume. A one pot detection solution of CRBN-DDB1 (2.5 nM), Anti-His Terbium Cryptate Gold (1X, PerkinElmer Cat. #: 61HI2TLB), and Cy5-Thalidomide (100 nM, Tenova Cat.: T52461) was prepared in 20 mM HEPES, 20 mM NaCl, 0.2 mM TCEP, 0.2 mM EDTA, and 0.005% Tween20 was dispensed to each assay plate. Compounds were stored in dry, ambient temperatures at 10 mM. A 10-point, 1:3 dilution series was prepared from 10 mM stock concentrations in Echo-compatible LDV plates. 10 nL of each compound dilution series was dispensed into assays wells using an Echo 650 (Labcyte inc. USA). 10 nL of 10 mM Lenalidomide was transferred into the active-control wells for the assay and 10 nL of DMSO was transferred into the neutral-control wells. The assay was then allowed to incubate for 30 min at ambient temperature after transferring compound. Plate measurements were taken on a Pherastar FSX (BMG Labtech, Germany) using the HTRF Red filter (Ex. 337 nm, em1: 620 nm, em2: 665 nm) (Flashes: 50, Integration time: 60-400 us, Z-height: 10 mm, Ratio-multiplier: 10,000). The HTRF signal was then subsequently normalized to the neutral and active controls. Analysis and IC50 values were derived using KNIME analytics (KNIME Zurich) transformation and fitting within Collaborative Drug Discovery (Collaborative Drug Discovery USA). Ki was derived from the geometric mean of the IC50 values using the Cheng-Prustoff transformation.
(§1) In Table 2, each compound is assigned a class (HTRF class) indicating the ability for Cereblon binding by means of their HTRF IC50 values according to […]: A, B, C or D. According to the code, A represents an IC50 value of ≤100 nM, B represents an IC50 value>100 nM and ≤1000 nM, C represents an IC50 value>1000 nM. IF Class assigns each compound a code indicating the ability for GSPT1 degradation: A, B or C. According to the code, A represents a DC50 value of ≤30 nM, B represents a DC50 value>30 nM and ≤300 nM and C represents a DC50 value of >300 nM.

Sequence of CRBN-DDB1 (Q96SW2 whole entry): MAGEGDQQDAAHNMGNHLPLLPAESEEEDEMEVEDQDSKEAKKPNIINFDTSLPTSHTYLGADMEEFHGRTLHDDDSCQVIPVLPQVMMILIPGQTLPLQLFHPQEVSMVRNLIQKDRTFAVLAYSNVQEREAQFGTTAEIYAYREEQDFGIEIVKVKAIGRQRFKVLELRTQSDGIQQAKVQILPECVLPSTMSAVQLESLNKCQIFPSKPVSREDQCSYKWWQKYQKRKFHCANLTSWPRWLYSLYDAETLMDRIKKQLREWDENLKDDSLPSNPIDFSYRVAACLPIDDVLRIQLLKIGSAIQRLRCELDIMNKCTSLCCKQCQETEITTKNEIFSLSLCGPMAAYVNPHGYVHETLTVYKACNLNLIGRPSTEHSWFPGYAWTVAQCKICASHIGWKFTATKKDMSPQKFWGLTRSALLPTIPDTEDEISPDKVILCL
Sequence of CRBN-DDB1 (Q16531 whole entry partner): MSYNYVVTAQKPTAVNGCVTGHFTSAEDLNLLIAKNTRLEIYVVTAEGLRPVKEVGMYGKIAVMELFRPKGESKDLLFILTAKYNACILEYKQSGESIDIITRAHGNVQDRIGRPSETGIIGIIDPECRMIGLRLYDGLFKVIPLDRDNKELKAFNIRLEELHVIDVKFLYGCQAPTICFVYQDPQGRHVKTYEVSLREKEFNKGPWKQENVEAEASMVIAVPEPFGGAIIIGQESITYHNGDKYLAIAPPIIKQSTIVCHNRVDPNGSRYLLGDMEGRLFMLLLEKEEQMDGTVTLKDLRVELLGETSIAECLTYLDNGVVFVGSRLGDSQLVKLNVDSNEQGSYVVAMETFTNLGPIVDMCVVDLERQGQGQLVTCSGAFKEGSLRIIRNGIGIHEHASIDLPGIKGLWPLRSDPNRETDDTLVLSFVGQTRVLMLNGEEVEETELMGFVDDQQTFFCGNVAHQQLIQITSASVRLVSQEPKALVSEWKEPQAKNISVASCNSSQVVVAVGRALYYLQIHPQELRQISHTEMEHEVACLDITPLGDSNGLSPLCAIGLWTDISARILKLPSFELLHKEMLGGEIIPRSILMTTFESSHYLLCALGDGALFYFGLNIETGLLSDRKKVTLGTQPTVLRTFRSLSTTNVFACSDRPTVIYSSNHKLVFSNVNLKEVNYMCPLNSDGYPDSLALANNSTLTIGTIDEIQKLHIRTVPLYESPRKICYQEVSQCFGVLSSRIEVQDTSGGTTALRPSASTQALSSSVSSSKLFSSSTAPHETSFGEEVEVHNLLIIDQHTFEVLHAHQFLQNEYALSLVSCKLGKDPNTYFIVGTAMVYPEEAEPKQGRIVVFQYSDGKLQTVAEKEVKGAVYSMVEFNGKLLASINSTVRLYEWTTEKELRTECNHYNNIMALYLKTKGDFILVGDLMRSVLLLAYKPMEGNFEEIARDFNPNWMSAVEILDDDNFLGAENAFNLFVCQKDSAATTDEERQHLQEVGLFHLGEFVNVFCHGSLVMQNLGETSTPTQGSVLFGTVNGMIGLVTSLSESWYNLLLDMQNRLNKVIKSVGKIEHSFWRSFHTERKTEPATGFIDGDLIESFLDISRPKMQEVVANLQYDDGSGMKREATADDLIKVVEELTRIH

IC50 [nM] | Compound
100 to 1000 | Cc1ccc(NC(=O)NC2CN(c3cc(F)c(C4CCC(=O)NC4=O)c(F)c3)C2)cc1Cl (centres unmarked) [Compound 1, 1-(3-chloro-4-methylphenyl)-3-(1-(4-(2,6-dioxopiperidin-3-yl)-3,5-difluorophenyl)azetidin-3-yl)urea]
100 to 1000 | Cc1ccc(NC(=O)OC2CN(c3cc(F)c(C4CCC(=O)NC4=O)c(F)c3)C2)cc1Cl (centres unmarked) [Compound 2, 1-(4-(2,6-dioxopiperidin-3-yl)-3,5-difluorophenyl)azetidin-3-yl(3-chloro-4-methylphenyl) carbamate]
100 to 1000 | O=C1CCC(c2c(F)cc(N3CC(OC(=O)Nc4cccc(OC(F)(F)F)c4)C3)cc2F)C(=O)N1 (centres unmarked) [Compound 3, 1-(4-(2,6-dioxopiperidin-3-yl)-3,5-difluorophenyl)azetidin-3-yl(3-(trifluoromethoxy)phenyl) carbamate]

target: T1, GSPT1 (Homo sapiens, UniProt P15170+Q96SW2); experiment: Immunofluorescence assay for activity to degrade GSPT1 in CAL-51 cells; type: cell-based; conditions: 6 h treatment, read-out: IF Class (GSPT1 degradation, DC50)
T1 construct: CAL-51 cells were purchased from DSMZ (cat. Number ACC302); host or cells: CAL-51
Description: Example 147: Compound Activity by Immunofluorescence Assay
The representative compounds were tested in an immunofluorescence assay for their activity to degrade GSPT1. CAL-51 cells were purchased from DSMZ (cat. Number ACC302), sub-cultured in 90% Dulbecco's MEM (4.5 g/L glucose, Gibco 11965)+10% heat inactivated FBS (BioConcept, 2-01F136I) and incubated at 37° C., 5% CO2. For the assay imaging microtiter plate Cell Carrier 96 Ultra (Perkin Elmer 6055302) were pre-coated with Fibronectin (Sigma F085, 30 μL at 0.2 μg/mL) in PBS (100 μL, Gibco 14190) for 45 min at room temperature, rinsed with PBS and CAL-51 cells (30K cells/well) were plated and let to adhere overnight. Cells were treated with compounds typically using a serial dilution ranging from 30 μM to 0.1 nM for 6 h. Compounds were stored at 10 mM DMSO stocks. Vehicle (DMSO), positive (CC-885, 10 μM) and rescue controls (positive control plus 0.2 μM bortezomib) were also included at this stage. Cells were subsequently rinsed with PBS and fixed in 10% Formalin solution (50 μL, Sigma HT5011)) for 20 mins at room temperature. Following three consecutive PBS washes (100 μL), cells were permeabilized in 0.1% Triton X-100 in PBS (Sigma 93443, 50 μL) for 15 min. at room temperature. Following three further PBS washes, 50 μL blocking buffer (1% BSA, Sigma A4503, in PBS) was added for 45 min for signal-to noise reduction. Primary antibody (human GSPT1, Sigma HPA052488) was diluted in blocking buffer (dil.1/300, 35 μL/well) and incubated with the cells overnight at 4° C. After three PBS washes, Alexa-fluor 488 coupled secondary antibodies (Invitrogen, A32731, dil. 1/1000), Alexa-fluor 647-Phalloidin (Invitrogen, A22287, dil. 1/200) and DAPI (Thermo, #62248, dil. 1/1000) were diluted in blocking buffer and incubated with the samples for 2 h at room temperature. After three final PBS washes, samples were conserved in 100 μL PBS in the dark, until measurement. Image acquisition was performed on the Operetta High-Content Imager (Perkin-Elmer). Fluorescence intensity of […] (GSPT1), Alexa-Fluor 647 (Actin) and DAPI (Nucleus) were measured. For the determination of GSPT1 DC50 values, a custom algorithm implemented in the PerkinElmer image analysis software Harmony-Acapella® was developed. After user-defined setting of adjustment parameters, the analysis was run identically without human intervention for all image fields. DAPI staining of the nuclei was used to determine the location of cells using standard nuclei detection modules. Segmentation artifacts were removed by threshold-based filters for area, roundness and intensity. The outline of the cells was determined analogously from the sum of the normalized, smoothed DAPI and Actin channel, starting from each nucleus. The Alexa-Fluor 488 (GSPT1) signal intensity in each cell was finally measured, in order to obtain a Mean intensity per cell. GSPT1 degradation (DC50) was calculated after normalization to controls and data import in CDD vault Database, using non-linear regression.
as §1

T1 sequence (P15170 whole entry): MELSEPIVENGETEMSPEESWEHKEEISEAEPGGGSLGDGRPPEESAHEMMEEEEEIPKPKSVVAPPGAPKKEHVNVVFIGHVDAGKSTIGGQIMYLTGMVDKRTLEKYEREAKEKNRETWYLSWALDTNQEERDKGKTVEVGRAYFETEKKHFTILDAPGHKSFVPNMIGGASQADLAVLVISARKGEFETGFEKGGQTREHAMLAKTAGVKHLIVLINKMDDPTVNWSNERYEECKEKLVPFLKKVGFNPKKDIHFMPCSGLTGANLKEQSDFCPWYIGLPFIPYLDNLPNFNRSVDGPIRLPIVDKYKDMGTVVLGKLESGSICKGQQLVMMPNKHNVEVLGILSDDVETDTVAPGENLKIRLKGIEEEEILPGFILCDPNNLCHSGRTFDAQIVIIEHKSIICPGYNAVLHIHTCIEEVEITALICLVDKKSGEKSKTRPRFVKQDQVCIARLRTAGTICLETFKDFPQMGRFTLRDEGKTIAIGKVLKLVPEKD
T1 sequence (Q96SW2 whole entry): as the sequence (Q96SW2 whole entry) above
T1 sequence (Q16531 2-1140 partner limits assumed): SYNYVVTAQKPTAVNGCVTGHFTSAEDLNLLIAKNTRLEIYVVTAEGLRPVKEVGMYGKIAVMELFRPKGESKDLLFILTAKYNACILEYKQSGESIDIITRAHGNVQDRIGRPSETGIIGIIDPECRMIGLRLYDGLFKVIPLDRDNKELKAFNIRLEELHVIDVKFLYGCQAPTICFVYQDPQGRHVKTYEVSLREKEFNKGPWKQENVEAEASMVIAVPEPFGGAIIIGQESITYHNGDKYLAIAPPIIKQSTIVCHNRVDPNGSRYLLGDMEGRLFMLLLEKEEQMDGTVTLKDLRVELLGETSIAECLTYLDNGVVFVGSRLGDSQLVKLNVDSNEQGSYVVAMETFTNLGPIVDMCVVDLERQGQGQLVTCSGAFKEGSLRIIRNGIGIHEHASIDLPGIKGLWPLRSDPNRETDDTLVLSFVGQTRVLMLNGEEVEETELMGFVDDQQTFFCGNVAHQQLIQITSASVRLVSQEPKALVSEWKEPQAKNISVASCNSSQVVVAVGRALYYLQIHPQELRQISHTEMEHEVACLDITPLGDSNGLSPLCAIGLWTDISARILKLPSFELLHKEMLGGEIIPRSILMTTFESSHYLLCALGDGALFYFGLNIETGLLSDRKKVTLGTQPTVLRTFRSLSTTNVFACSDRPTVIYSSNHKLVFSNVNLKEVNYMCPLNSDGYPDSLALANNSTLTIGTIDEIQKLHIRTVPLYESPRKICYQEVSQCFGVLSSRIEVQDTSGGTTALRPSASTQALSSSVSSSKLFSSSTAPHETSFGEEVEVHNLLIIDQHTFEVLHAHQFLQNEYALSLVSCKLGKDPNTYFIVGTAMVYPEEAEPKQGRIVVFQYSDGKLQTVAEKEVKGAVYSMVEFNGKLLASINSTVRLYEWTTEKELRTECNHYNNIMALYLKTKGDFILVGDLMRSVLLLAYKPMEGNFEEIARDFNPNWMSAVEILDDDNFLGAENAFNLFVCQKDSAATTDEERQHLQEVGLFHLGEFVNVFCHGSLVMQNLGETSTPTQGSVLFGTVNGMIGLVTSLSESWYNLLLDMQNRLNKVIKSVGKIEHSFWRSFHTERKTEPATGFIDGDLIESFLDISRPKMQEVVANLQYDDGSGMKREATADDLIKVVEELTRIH

Compound | DC50 [nM]
Cc1ccc(NC(=O)NC2CN(c3cc(F)c(C4CCC(=O)NC4=O)c(F)c3)C2)cc1Cl (centres unmarked) [Compound 1, 1-(3-chloro-4-methylphenyl)-3-(1-(4-(2,6-dioxopiperidin-3-yl)-3,5-difluorophenyl)azetidin-3-yl)urea] | ≤ 30
Cc1ccc(NC(=O)OC2CN(c3cc(F)c(C4CCC(=O)NC4=O)c(F)c3)C2)cc1Cl (centres unmarked) [Compound 2, 1-(4-(2,6-dioxopiperidin-3-yl)-3,5-difluorophenyl)azetidin-3-yl(3-chloro-4-methylphenyl) carbamate] | ≤ 30
O=C1CCC(c2c(F)cc(N3CC(OC(=O)Nc4cccc(OC(F)(F)F)c4)C3)cc2F)C(=O)N1 (centres unmarked) [Compound 3, 1-(4-(2,6-dioxopiperidin-3-yl)-3,5-difluorophenyl)azetidin-3-yl(3-(trifluoromethoxy)phenyl) carbamate] | ≤ 30
O=C1CCC(c2c(F)cc(N3CC(OC(=O)NC45CCC(CC4)CC5)C3)cc2F)C(=O)N1 (centres unmarked) [Compound 98, 1-(4-(2,6-dioxopiperidin-3-yl)-3,5-difluorophenyl)azetidin-3-yl bicyclo[2.2.2]octan-1-ylcarbamate] | ≤ 30
O=C1CCC(c2c(F)cc(N3CC(OC(=O)N4CC5(COC5)C4)C3)cc2F)C(=O)N1 (centres unmarked) [Compound 105, 1-(4-(2,6-dioxopiperidin-3-yl)-3,5-difluorophenyl)azetidin-3-yl 2-oxa-6-azaspiro[3.3]heptane-6-carboxylate] | > 300
O=C1CCC(c2c(F)cc(N3CC(OC(=O)NCC45C[C@H]6C[C@@H](C4)C[C@@H](C5)C6)C3)cc2F)C(=O)N1 (stereo partly drawn) [Compound 106, 1-(4-(2,6-dioxopiperidin-3-yl)-3,5-difluorophenyl)azetidin-3-yl((3R,5R,7R)-adamantan-1-ylmethyl) carbamate] | ≤ 30
O=C1CCC(c2c(F)cc(N3CC(OC(=O)NC4[C@H]5C[C@@H]6C[C@@H](C[C@H]4C6)C5)C3)cc2F)C(=O)N1 (stereo partly drawn) [Compound 107, 1-(4-(2,6-dioxopiperidin-3-yl)-3,5-difluorophenyl)azetidin-3-yl (1R,3S,5R,7R)-adamantan-2-ylcarbamate] | 30 to 300
COCC(COC)NC(=O)OC1CN(c2cc(F)c(C3CCC(=O)NC3=O)c(F)c2)C1 (centres unmarked) [Compound 108, 1-(4-(2,6-dioxopiperidin-3-yl)-3,5-difluorophenyl)azetidin-3-yl (1,3-dimethoxypropan-2-yl)carbamate] | > 300
O=C1CCC(c2c(F)cc(N3CC(OC(=O)NCCC(F)(F)F)C3)cc2F)C(=O)N1 (centres unmarked) [Compound 109, 1-(4-(2,6-dioxopiperidin-3-yl)-3,5-difluorophenyl)azetidin-3-yl (3,3,3-trifluoropropyl)carbamate] | > 300
O=C1CCC(c2c(F)cc(N3CC(NC(=O)N[C@@H]4CCC(F)(F)C4)C3)cc2F)C(=O)N1 (stereo partly drawn) [Compound 111, 1-((R)-3,3-difluorocyclopentyl)-3-(1-(4-(2,6-dioxopiperidin-3-yl)-3,5-difluorophenyl)azetidin-3-yl)urea] | > 300
O=C1CCC(c2c(F)cc(N3CC(OC(=O)NC45CCC(C4)C5)C3)cc2F)C(=O)N1 (centres unmarked) [Compound 112, 1-(4-(2,6-dioxopiperidin-3-yl)-3,5-difluorophenyl)azetidin-3-ylbicyclo[2.1.1]hexan-1-ylcarbamate] | 30 to 300

Now from value to compound:

DC50 [nM] | Compound
> 300 | CN1CCC(CNC(=O)OC2CN(c3cc(F)c(C4CCC(=O)NC4=O)c(F)c3)C2)CC1 (centres unmarked) [Compound 114, 1-(4-(2,6-dioxopiperidin-3-yl)-3,5-difluorophenyl)azetidin-3-yl((1-methylpiperidin-4-yl)methyl)carbamate]
≤ 30 | C[C@H](NC(=O)OC1CN(c2cc(F)c(C3CCC(=O)NC3=O)c(F)c2)C1)C1CCCCC1 (stereo partly drawn) [Compound 115, 1-(4-(2,6-dioxopiperidin-3-yl)-3,5-difluorophenyl)azetidin-3-yl((S)-1-cyclohexylethyl)carbamate]
≤ 30 | O=C1CCC(c2c(F)cc(N3CC(OC(=O)NC4CCSCC4)C3)cc2F)C(=O)N1 (centres unmarked) [Compound 116, 1-(4-(2,6-dioxopiperidin-3-yl)-3,5-difluorophenyl)azetidin-3-yl(tetrahydro-2H-thiopyran-4-yl)carbamate]
> 300 | O=C1CCC(c2c(F)cc(N3CC(OC(=O)NCC4CCOCC4)C3)cc2F)C(=O)N1 (centres unmarked) [Compound 117, 1-(4-(2,6-dioxopiperidin-3-yl)-3,5-difluorophenyl)azetidin-3-yl ((tetrahydro-2H-pyran-4-yl)methyl)carbamate]
> 300 | CSCCNC(=O)OC1CN(c2cc(F)c(C3CCC(=O)NC3=O)c(F)c2)C1 (centres unmarked) [Compound 118, 1-(4-(2,6-dioxopiperidin-3-yl)-3,5-difluorophenyl)azetidin-3-yl(2-(methylthio)ethyl)carbamate]
> 300 | CO[C@H]1CC[C@@H](NC(=O)OC2CN(c3cc(F)c(C4CCC(=O)NC4=O)c(F)c3)C2)CC1 (stereo partly drawn) [Compound 119, 1-(4-(2,6-dioxopiperidin-3-yl)-3,5-difluorophenyl) azetidin-3-yl ((1S,4S)-4-methoxycyclohexyl) carbamate]
> 300 | CC(C)N1CCC(NC(=O)NC2CN(c3cc(F)c(C4CCC(=O)NC4=O)c(F)c3)C2)C1 (centres unmarked) [Compound 120, 1-(1-(4-(2,6-dioxopiperidin-3-yl)-3,5-difluorophenyl)azetidin-3-yl)-3-(1-isopropylpyrrolidin-3-yl) urea]
> 300 | CN1CCC(NC(=O)NC2CN(c3cc(F)c(C4CCC(=O)NC4=O)c(F)c3)C2)C1 (centres unmarked) [Compound 121, 1-(1-(4-(2,6-dioxopiperidin-3-yl)-3,5-difluorophenyl)azetidin-3-yl)-3-(1-methylpyrrolidin-3-yl)urea]
30 to 300 | CCC(C)CNC(=O)OC1CN(c2cc(F)c(C3CCC(=O)NC3=O)c(F)c2)C1 (centres unmarked) [Compound 122, 1-(4-(2,6-dioxopiperidin-3-yl)-3,5-difluorophenyl) azetidin-3-yl (2-methylbutyl)carbamate]

From patent publication US20240308976A1, “COMPOUNDS THAT MEDIATE PROTEIN DEGRADATION AND USES THEREOF” (Monte Rosa Therapeutics, Inc., priority 2021, published 2024)
